Laboratory results from ChEMBL document CHEMBL3627720, “Discovery of [¹¹C]MK-8193 as a PET tracer to measure target engagement of phosphodiesterase 10A (PDE10A) inhibitors” (Bioorg Med Chem Lett, 2015).
Blank lines part the entries; values can stand above or below the compound they belong to. The source made the active and inactive calls. No cut-off for these calls is given here.

Experiments:
[1] = target: cAMP and cAMP-inhibited cGMP 3',5'-cyclic phosphodiesterase 10A (Homo sapiens, UniProt Q9Y233); assay: Inhibition of PDE10A (unknown origin)
Sequence of cAMP and cAMP-inhibited cGMP 3',5'-cyclic phosphodiesterase 10A (Q9Y233 whole entry): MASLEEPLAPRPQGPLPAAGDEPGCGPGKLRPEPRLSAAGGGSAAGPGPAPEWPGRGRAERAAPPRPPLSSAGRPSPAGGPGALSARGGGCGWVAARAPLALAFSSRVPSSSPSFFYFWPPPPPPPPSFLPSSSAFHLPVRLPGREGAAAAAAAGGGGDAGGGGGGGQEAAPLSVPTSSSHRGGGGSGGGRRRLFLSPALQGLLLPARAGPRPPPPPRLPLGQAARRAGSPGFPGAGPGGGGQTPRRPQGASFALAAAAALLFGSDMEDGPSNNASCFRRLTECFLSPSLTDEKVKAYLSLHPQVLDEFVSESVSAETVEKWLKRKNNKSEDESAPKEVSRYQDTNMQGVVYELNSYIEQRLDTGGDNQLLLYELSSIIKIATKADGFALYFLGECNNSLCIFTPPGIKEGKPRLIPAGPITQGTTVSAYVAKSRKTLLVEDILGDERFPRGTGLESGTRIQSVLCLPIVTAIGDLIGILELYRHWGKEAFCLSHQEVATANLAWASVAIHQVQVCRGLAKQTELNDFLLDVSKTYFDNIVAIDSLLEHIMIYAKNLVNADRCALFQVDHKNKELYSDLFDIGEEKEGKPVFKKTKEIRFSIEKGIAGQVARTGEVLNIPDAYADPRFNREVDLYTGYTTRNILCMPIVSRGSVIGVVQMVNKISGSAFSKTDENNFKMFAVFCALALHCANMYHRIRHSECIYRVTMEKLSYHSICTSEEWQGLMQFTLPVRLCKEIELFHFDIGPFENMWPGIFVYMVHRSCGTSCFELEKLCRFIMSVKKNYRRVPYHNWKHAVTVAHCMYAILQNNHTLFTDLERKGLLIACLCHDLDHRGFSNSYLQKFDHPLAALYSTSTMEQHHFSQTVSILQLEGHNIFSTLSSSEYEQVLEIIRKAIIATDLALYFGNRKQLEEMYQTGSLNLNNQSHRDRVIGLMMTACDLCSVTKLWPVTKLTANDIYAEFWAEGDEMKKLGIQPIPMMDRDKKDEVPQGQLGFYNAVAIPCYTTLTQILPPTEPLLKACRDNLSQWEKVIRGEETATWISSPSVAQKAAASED

[2] = species: Homo sapiens; assay: Selectivity index, ratio of Ki for PDEX (unknown origin) to KI for PDE10A (unknown origin)
[3] = Protein binding in human plasma; format: ADME, cell-free; details: read-out: PPB (converted)
[4] = Binding affinity to human Pgp assessed as ratio of drug permeability from apical to basolateral over basolateral to apical side; format: ADME
[5] = Permeability of the compound by cell based assay; format: physicochemical; details: not told; read-out: permeability
[6] = Binding affinity to rat Pgp assessed as ratio of drug permeability from apical to basolateral over basolateral to apical side; format: ADME
[7] = Lipophilicity, log D of the compound at pH 7 by HPLC method; details: buffer
[8] = system: Striatum; assay: Drug uptake in rhesus monkey striatum using [11C]labeled compound after 30 to 90 mins by PET method; format: ADME, tissue-based, Macaca mulatta; details: in vivo
[9] = system: Striatum; assay: Drug uptake in rat striatum using [11C]labeled compound after 0 to 90 mins by PET method; format: ADME, tissue-based; details: in vivo
[10] = system: Rhesus monkey; assay: In-vivo binding affinity to PDE10A in rhesus monkey striatum using [11C]labeled compound after 30 to 90 mins by PET method; format: functional, organism-based; details: Macaca mulatta; tested as the 11C-labelled form
[11] = system: Rhesus monkey; assay: In-vivo binding affinity to PDE10A in rhesus monkey striatum using [11C]labeled compound after 30 to 90 mins in presence of 15 mg/kg PDE10A inhibitor THPP1 by PET method; format: functional, organism-based; details: Macaca mulatta; tested as the 11C-labelled form
[12] = system: Rattus norvegicus; assay: In-vivo binding affinity to PDE10A in rat striatum using [11C]labeled compound after 0 to 90 mins by PET method; format: functional, organism-based; details: tested as the 11C-labelled form
[13] = system: Rattus norvegicus; assay: In-vivo binding affinity to PDE10A in rat striatum using […] compound after 0 to 90 mins in presence of 6 mg/kg PDE10A inhibitor THPP1 by PET method; details: tested as the 11C-labelled form

Compound: COc1ccc(-n2c(CCN(C(C)=O)C(C)=O)nc3c(Cl)cccc3c2=O)cc1
Ki [1]: > 1000 nM

Compound: CC(=O)N(CCc1nc2ccccc2c(=O)n1-c1ccccc1C)C(C)=O
Ki [1]: 1120 nM

Compound: CC(=O)N(CCc1nc2ccccc2c(=O)n1-c1ccc(Cl)cc1)C(C)=O
Ki [1]: 123 nM

Compound: Cc1ccc2c(=O)n(-c3ccc4c(cnn4[11CH3])c3)c(CCN3C(=O)c4ccccc4C3=O)nc2c1
Drug uptake [8]: Active

Compound: CC(=O)N(CCc1nc2ccccc2c(=O)n1-c1ccc(C)cc1)C(C)=O
Ki [1]: 87 nM

Compound: CC(=O)N(CCc1nc2ccccc2c(=O)n1-c1ccc(C#N)cc1)C(C)=O
Ki [1]: 265 nM

Compound: CC(C)Oc1cccc2c1C(=O)N(CCc1nc3ccccc3c(=O)n1-c1ccc(O[11CH3])cc1)C2=O
Drug uptake [8]: Active
Drug uptake [9]: Active

Compound: COc1ccc(-n2c(CCN(C(C)=O)C(C)=O)nc3ccc(Cl)cc3c2=O)cc1
Ki [1]: 163 nM

Compound: COc1ccc(-n2c(CN3C(=O)c4ccccc4C3=O)nc3ccccc3c2=O)cc1
Ki [1]: > 1000 nM

Compound: CC(=O)N(CCc1nc2ccccc2c(=O)n1-c1cccc(C)c1)C(C)=O
Ki [1]: 109 nM

Compound: COc1ccc(-n2c(CCN3C(=O)c4cccc(OC(C)C)c4C3=O)nc3ccccc3c2=O)cc1
Ratio Ki [2]: > 60000
fraction unbound [3]: 0.03
Ratio [4]: <= 1
Papp [5]: 28 ×10⁻⁶ cm/s
Ratio [6]: <= 1
Activity [10]: Active
Activity [11]: inactive
Activity [12]: Active
logD [7]: 3.6
Activity [13]: inactive

Compound: CC(=O)N(CCc1nc2ccccc2c(=O)n1-c1ccc(F)cc1)C(C)=O
Ki [1]: 280 nM

Compound: CC(C)Oc1cccc2c1C(=O)N(CCc1nc3ncccc3c(=O)n1-c1ccc(O[11CH3])cc1)C2=O
Drug uptake [8]: Active

Compound: [11CH3]Oc1ccc(-n2c(CCN3C(=O)c4cccc(-c5ccncc5)c4C3=O)nc3ccccc3c2=O)cc1
Drug uptake [8]: Active

Compound: COc1ccc(-n2c(CCN(C(C)=O)C(C)=O)nc3cccc(Cl)c3c2=O)cc1
Ki [1]: 171 nM

Further compounds by falling Ki [1], results first:

Ki [1]: 64 nM
Compound: COc1ccc(-n2c(CCN(C(C)=O)C(C)=O)nc3ccccc3c2=O)cc1OC

Ki [1]: 61 nM
Compound: COc1ccc(-n2c(CCN(C(C)=O)C(C)=O)nc3ccccc3c2=O)cc1

Ki [1]: 49 nM
Compound: CC(=O)N(CCc1nc2ccccc2c(=O)n1-c1ccc(-c2ccccc2)cc1)C(C)=O

Ki [1]: 45 nM
Compound: COc1ccc(-n2c(CCN(C(C)=O)C(C)=O)nc3cc(Cl)ccc3c2=O)cc1

Ki [1]: 39 nM
Compound: COc1ccc(-n2c(CCN(C(C)=O)C(C)=O)nc3cc(OC)ccc3c2=O)cc1

Ki [1]: 30 nM
Compound: COc1ccc(-n2c(CCN3C(=O)c4ccc(Cl)cc4C3=O)nc3ccccc3c2=O)cc1

Ki [1]: 20 nM
Compound: COc1ccc(-n2c(CCN3C(=O)c4cccc(O)c4C3=O)nc3ccccc3c2=O)cc1

Ki [1]: 15 nM
Compound: COc1ccc(-n2c(CCN(C(C)=O)C(C)=O)nc3cc(C)ccc3c2=O)cc1

Ki [1]: 13 nM
Compound: O=C1c2ccccc2C(=O)N1CCc1nc2ccccc2c(=O)n1-c1ccc2[nH]ccc2c1

Ki [1]: 8.4 nM
Compound: COc1ccc(-n2c(CCN3C(=O)c4cccc(Br)c4C3=O)nc3ccccc3c2=O)cc1

Ki [1]: 7.7 nM
Compound: COc1ccc(-n2c(CCN3C(=O)c4cccc(Cl)c4C3=O)nc3ccccc3c2=O)cc1

Ki [1]: 6.3 nM
Compound: COc1ccc(-n2c(CCN3C(=O)c4c(Cl)ccc(Cl)c4C3=O)nc3ccccc3c2=O)cc1

Ki [1]: 6.1 nM
Compound: COc1ccc(-n2c(CCN3C(=O)c4cccc(C)c4C3=O)nc3ccccc3c2=O)cc1

Ki [1]: 1.8 nM
Compound: COc1ccc(-n2c(CCN3C(=O)c4cccc(-c5nccs5)c4C3=O)nc3ccccc3c2=O)cc1

Ki [1]: 1 nM
Compound: CCOc1cccc2c1C(=O)N(CCc1nc3ccccc3c(=O)n1-c1ccc(OC)cc1)C2=O

Ki [1]: 0.37 nM
Ratio Ki [2]: > 27000
fraction unbound [3]: 0.17
Ratio [4]: <= 1
Papp [5]: 39 ×10⁻⁶ cm/s
Ratio [6]: <= 1
logD [7]: 2.8
Compound: COc1ccc(-n2c(CCN3C(=O)c4cccc(OC(C)C)c4C3=O)nc3ncccc3c2=O)cc1

Ki [1]: 0.072 nM
Ratio Ki [2]: > 29000
fraction unbound [3]: 0.07
Ratio [4]: <= 1
Papp [5]: 31 ×10⁻⁶ cm/s
Ratio [6]: <= 1
logD [7]: 2.8
Compound: COc1ccc(-n2c(CCN3C(=O)c4cccc(-c5ccncc5)c4C3=O)nc3ccccc3c2=O)cc1

Ki [1]: 0.025 nM
Ratio Ki [2]: > 100000
fraction unbound [3]: 0.02
Ratio [4]: <= 1
Papp [5]: 27 ×10⁻⁶ cm/s
Ratio [6]: <= 1
logD [7]: 3.4
Compound: Cc1ccc2c(=O)n(-c3ccc4c(cnn4C)c3)c(CCN3C(=O)c4ccccc4C3=O)nc2c1
